The experiment has as its target T1, IKZF2 (Homo sapiens, UniProt Q96SW2+Q9UKS7).
T1 construct: host or cells: Jurkat-IKZF2-HiBiT
In words: IKZF2 HiBiT degradation assay (Jurkat-IKZF2-HiBiT). It counts as cell-based. The following applies: for DC50: read-out: IKZF2 degradation DC50, Jurkat-IKZF2-HiBiT cells, 24 hours; for Dmax: read-out: IKZF2 degradation Dmax (%). The method, then: Degradation of IKZF2 protein was determined by IKZF2 HiBiT assay using the Jurkat-IKZF2-HiBiT (Promega) cell line. […] Compounds were serially diluted in culture medium, and 20 μl of the diluted compounds were added to the appropriate wells of the plate. After the addition of compounds, the cells were incubated at 37° C. in an atmosphere of 5% CO2 for 24 hours. At the end of treatment, 40 ul of Nano-Glo HiBiT Lytic Detection Reagent (Promega) was added to each well, and then the plates were incubated at room temperature for 10-20 minutes. The luminescent signal was measured using a CALRIOstar plate reader (BMG Labtech). The readings were normalized to the DMSO-treated cells and the IC50 was calculated by nonlinear regression (four parameters sigmoid fitted with variable slope, least squares fit, and no constraint) analysis using the GraphPad Prism 8 software.

The structures appear in SMILES notation. Some results are limits rather than exact numbers.

T1 sequence (Q9UKS7 whole entry): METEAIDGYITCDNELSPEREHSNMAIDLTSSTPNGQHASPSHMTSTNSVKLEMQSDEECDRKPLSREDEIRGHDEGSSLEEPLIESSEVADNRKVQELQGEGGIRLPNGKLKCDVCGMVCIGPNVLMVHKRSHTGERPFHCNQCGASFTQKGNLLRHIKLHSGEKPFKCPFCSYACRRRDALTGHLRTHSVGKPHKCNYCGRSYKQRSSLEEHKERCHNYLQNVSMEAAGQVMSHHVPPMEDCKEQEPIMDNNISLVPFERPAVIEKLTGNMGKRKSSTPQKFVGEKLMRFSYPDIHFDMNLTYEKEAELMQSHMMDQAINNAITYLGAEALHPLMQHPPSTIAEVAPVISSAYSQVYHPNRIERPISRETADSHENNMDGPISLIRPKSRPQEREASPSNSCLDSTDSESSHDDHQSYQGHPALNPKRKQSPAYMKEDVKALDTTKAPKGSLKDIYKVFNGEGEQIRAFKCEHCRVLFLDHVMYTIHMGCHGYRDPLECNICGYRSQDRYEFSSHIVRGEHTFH
T1 sequence (Q96SW2 whole entry): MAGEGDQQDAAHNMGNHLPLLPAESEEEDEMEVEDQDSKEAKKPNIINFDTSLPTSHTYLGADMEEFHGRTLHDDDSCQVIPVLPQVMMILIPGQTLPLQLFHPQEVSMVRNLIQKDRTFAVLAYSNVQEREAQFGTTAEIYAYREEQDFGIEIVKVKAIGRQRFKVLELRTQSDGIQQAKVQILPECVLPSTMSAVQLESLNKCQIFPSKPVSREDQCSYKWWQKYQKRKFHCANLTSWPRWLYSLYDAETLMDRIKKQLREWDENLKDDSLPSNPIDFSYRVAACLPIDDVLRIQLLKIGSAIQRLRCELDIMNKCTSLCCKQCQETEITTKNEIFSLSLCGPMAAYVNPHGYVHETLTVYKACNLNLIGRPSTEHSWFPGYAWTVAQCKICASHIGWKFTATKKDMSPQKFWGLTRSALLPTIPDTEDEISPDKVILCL
T1 sequence (Q16531 2-1140 partner limits assumed): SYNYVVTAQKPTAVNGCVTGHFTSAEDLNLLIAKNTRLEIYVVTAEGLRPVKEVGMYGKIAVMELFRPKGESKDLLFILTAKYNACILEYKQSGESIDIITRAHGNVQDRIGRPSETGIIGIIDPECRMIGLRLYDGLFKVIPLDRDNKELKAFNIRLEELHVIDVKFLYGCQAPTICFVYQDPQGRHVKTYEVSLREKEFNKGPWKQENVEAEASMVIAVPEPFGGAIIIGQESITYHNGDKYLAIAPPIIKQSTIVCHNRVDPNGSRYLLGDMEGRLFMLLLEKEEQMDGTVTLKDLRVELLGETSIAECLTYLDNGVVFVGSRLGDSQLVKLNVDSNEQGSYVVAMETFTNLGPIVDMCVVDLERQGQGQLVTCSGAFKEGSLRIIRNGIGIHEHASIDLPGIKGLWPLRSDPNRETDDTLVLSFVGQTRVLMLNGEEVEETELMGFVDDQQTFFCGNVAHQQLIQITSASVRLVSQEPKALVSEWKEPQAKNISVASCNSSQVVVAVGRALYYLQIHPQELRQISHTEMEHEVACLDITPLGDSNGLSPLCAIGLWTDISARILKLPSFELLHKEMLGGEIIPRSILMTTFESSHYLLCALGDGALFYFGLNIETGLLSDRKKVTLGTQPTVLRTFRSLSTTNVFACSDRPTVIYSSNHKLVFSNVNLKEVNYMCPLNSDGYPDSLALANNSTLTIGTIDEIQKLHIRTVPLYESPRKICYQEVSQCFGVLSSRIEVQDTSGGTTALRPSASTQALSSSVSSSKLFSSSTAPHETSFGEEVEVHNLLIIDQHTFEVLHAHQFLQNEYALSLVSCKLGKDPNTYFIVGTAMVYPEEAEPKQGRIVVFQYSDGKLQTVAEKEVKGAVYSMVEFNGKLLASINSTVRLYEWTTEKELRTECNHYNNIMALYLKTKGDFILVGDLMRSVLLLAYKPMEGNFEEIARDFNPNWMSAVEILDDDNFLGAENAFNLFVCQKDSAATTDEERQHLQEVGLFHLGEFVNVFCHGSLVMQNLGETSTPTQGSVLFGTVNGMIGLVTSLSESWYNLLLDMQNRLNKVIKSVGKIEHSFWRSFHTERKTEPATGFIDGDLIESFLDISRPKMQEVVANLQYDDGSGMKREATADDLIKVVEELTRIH

In general, DC50 refers to the concentration giving 50% degradation. Broadly, the Dmax is the largest share of the target that was removed. Regarding `O=C1CCC(N2Cc3cc4c(cc3C2=O)OC[C@@H]2CN(Cc3ccccc3)CCN42)C(=O)N1` (stereo partly drawn) [Compound C1, 3-((S)-3-benzyl-8-oxo-1,2,3,4,4a,5,8,10-octahydro-9H-pyrazino[1′,2′:4,5][1,4]oxazino[2,3-f]isoindol-9-yl)piperidine-2,6-dione], the DC50 is more than 2 µM and the Dmax is 27%.

`O=C1CCC(N2Cc3cc4c(cc3C2=O)OC[C@@H]2CN(CC3CCCCC3)CCN42)C(=O)N1` (stereo partly drawn) [Compound C2, 3-((S)-3-(cyclohexylmethyl)-8-oxo-1,2,3,4,4a,5,8,10-octahydro-9H-pyrazino[1′,2′:4,5][1,4]oxazino[2,3-f]isoindol-9-yl)piperidine-2,6-dione]: the DC50 came out at 1.4 µM and the Dmax was determined as 56%.

As to `CCCN1CCN2c3cc4c(cc3OC[C@@H]2C1)C(=O)N(C1CCC(=O)NC1=O)C4` (stereo partly drawn) [Compound C3, 3-((S)-8-oxo-3-385.21propyl-1,2,3,4,4a,5,8,10-octahydro-9H-pyrazino[1′,2′:4,5][1,4]oxazino[2,3-f]isoindol-9-yl)piperidine-2,6-dione], the DC50 was more than 2 µM and the Dmax turned out to be 58%.

Consider `O=C1CCC(N2Cc3cc4c(cc3C2=O)OC[C@@H]2CN(CC3CCCC3)CCN42)C(=O)N1` (stereo partly drawn) [Compound C4, 3-((S)-3-(cyclopentylmethyl)-8-oxo-1,2,3,4,4a,5,8,10-octahydro-9H-pyrazino[1′,2′:4,5][1,4]oxazino[2,3-f]isoindol-9-yl)piperidine-2,6-dione], for which the DC50 came out at 0.43 µM and the Dmax was 61%.

As to `CC(=O)N1CCC(CCN2CCN3c4cc5c(cc4OC[C@@H]3C2)C(=O)N(C2CCC(=O)NC2=O)C5)CC1` (stereo partly drawn) [Compound C5, 3-((S)-3-(2-(1-acetylpiperidin-4-yl)ethyl)-8-oxo-1,2,3,4,4a,5,8,10-octahydro-9H-pyrazino[1′,2′:4,5][1,4]oxazino[2,3-f]isoindol-9-yl)piperidine-2,6-dione], the DC50 was more than 2 µM and the Dmax was determined as 38%.

`CC(=O)N1CC2(CCC(CN3CCN4c5cc6c(cc5OC[C@@H]4C3)C(=O)N(C3CCC(=O)NC3=O)C6)CC2)C1` (stereo partly drawn) [Compound C6, 3-((S)-3-((2-acetyl-2-azaspiro[3.5]nonan-7-yl)methyl)-8-oxo-1,2,3,4,4a,5,8,10-octahydro-9H-pyrazino[1′,2′:4,5][1,4]oxazino[2,3-f]isoindol-9-yl)piperidine-2,6-dione]: the DC50 came out at 0.33 µM and the Dmax was determined as 62%.

Regarding `O=C1CCC(N2Cc3cc4c(cc3C2=O)OC[C@@H]2CN(CC3CCN(c5ccccc5)CC3)CCN42)C(=O)N1` (stereo partly drawn) [Compound C7, 3-((S)-8-oxo-3-((1-phenylpiperidin-4-yl)methyl)-1,2,3,4,4a,5,8,10-octahydro-9H-pyrazino[1′,2′:4,5][1,4]oxazino[2,3-f]isoindol-9-yl)piperidine-2,6-dione], the DC50 turned out to be 0.32 µM and the Dmax amounted to 50%.

Take `Cn1cc(-c2cccc(CN3CCN4c5cc6c(cc5OC[C@@H]4C3)C(=O)N([C@H]3CCC(=O)NC3=O)C6)c2)cn1` [Compound C20, (S)-3-((S)-3-(3-(1-methyl-1H-pyrazol-4-yl)benzyl)-8-oxo-1,2,3,4,4a,5,8,10-octahydro-9H-pyrazino[1′,2′:4,5][1,4]oxazino[2,3-f]isoindol-9-yl)piperidine-2,6-dione]: the DC50 is more than 10 µM and the Dmax is 27%.

With `COc1ccc(C(=O)Nc2cccc(CN3CCN4c5cc6c(cc5OC[C@@H]4C3)C(=O)N([C@H]3CCC(=O)NC3=O)C6)c2)cc1` [Compound C21, N-(3-(((S)-9-((S)-2,6-dioxopiperidin-3-yl)-8-oxo-1,2,4a,5,9,10-hexahydro-8H-pyrazino[1′,2′:4,5][1,4]oxazino[2,3-f]isoindol-3(4H)-yl)methyl)phenyl)-4-methoxybenzamide], the DC50 stood at 0.009 µM and the Dmax turned out to be 85%.

With `COc1ccc(C(=O)Nc2cccc(CN3CCN4c5cc6c(cc5OC[C@H]4C3)C(=O)N(C3CCC(=O)NC3=O)C6)c2)cc1` (stereo partly drawn) [Compound C22, N-(3-(((4aR)-9-(2,6-dioxopiperidin-3-yl)-8-oxo-1,2,4a,5,9,10-hexahydro-8H-pyrazino[1′,2′:4,5][1,4]oxazino[2,3-f]isoindol-3(4H)-yl)methyl)phenyl)-4-methoxybenzamide], the DC50 is more than 1 µM and the maximal degradation (Dmax) was 44%.

With `Cc1ccc(C(=O)Nc2cccc(CN3CCN4c5cc6c(cc5OC[C@@H]4C3)C(=O)N([C@H]3CCC(=O)NC3=O)C6)c2)cc1` [Compound C23, N-(3-(((S)-9-((S)-2,6-dioxopiperidin-3-yl)-8-oxo-1,2,4a,5,9,10-hexahydro-8H-pyrazino[1′,2′:4,5][1,4]oxazino[2,3-f]isoindol-3(4H)-yl)methyl)phenyl)-4-methylbenzamide], the DC50 amounted to 0.018 µM and the Dmax amounted to 77%.

For `O=C1CC[C@H](N2Cc3cc4c(cc3C2=O)OC[C@@H]2CN(Cc3cccc(NC(=O)c5ccc(Cl)cc5)c3)CCN42)C(=O)N1` [Compound C24, 4-chloro-N-(3-(((S)-9-((S)-2,6-dioxopiperidin-3-yl)-8-oxo-1,2,4a,5,9,10-hexahydro-8H-pyrazino[1′,2′:4,5][1,4]oxazino[2,3-f]isoindol-3(4H)-yl)methyl)phenyl)benzamide], the DC50 is 0.025 µM and the Dmax was 77%.

For the compound `O=C1CC[C@H](N2Cc3cc4c(cc3C2=O)OC[C@@H]2CN(Cc3cccc(NC(=O)c5ccccc5Cl)c3)CCN42)C(=O)N1` [Compound C25, 2-chloro-N-(3-(((S)-9-((S)-2,6-dioxopiperidin-3-yl)-8-oxo-1,2,4a,5,9,10-hexahydro-8H-pyrazino[1′,2′:4,5][1,4]oxazino[2,3-f]isoindol-3(4H)-yl)methyl)phenyl)benzamide], the DC50 is more than 1 µM and the Dmax was found to be 45%.

As to `CC(=O)Nc1cccc(CN2CCN3c4cc5c(cc4OC[C@@H]3C2)C(=O)N([C@H]2CCC(=O)NC2=O)C5)c1` [Compound C26, N-(3-(((S)-9-((S)-2,6-dioxopiperidin-3-yl)-8-oxo-1,2,4a,5,9,10-hexahydro-8H-pyrazino[1′,2′:4,5][1,4]oxazino[2,3-f]isoindol-3(4H)-yl)methyl)phenyl)acetamide], the DC50 is more than 1 µM and the Dmax came out at 33%.

Regarding `COc1ccc(C(=O)N(C)c2cccc(CN3CCN4c5cc6c(cc5OC[C@@H]4C3)C(=O)N([C@H]3CCC(=O)NC3=O)C6)c2)cc1` [Compound C27, N-(3-(((S)-9-((S)-2,6-dioxopiperidin-3-yl)-8-oxo-1,2,4a,5,9,10-hexahydro-8H-pyrazino[1′,2′:4,5][1,4]oxazino[2,3-f]isoindol-3(4H)-yl)methyl)phenyl)-4-methoxy-N-methylbenzamide], the DC50 is more than 10 µM and the Dmax amounted to 21%.

Regarding `O=C1CC[C@H](N2Cc3cc4c(cc3C2=O)OC[C@@H]2CN(Cc3cccc(NS(=O)(=O)c5ccccc5)c3)CCN42)C(=O)N1` [Compound C28, N-(3-(((S)-9-((S)-2,6-dioxopiperidin-3-yl)-8-oxo-1,2,4a,5,9,10-hexahydro-8H-pyrazino[1′,2′:4,5][1,4]oxazino[2,3-f]isoindol-3(4H)-yl)methyl)phenyl)benzenesulfonamide], the DC50 is more than 1 µM and the Dmax worked out at 11%.

For `O=C1CC[C@H](N2Cc3cc4c(cc3C2=O)OC[C@@H]2CN(CC3CCCC3)CCN42)C(=O)N1` [Compound C29, (S)-3-((S)-3-(cyclopentylmethyl)-8-oxo-1,2,3,4a,5,8,10-octahydro-9H-pyrazino[1′,2′:4,5][1,4]oxazino[2,3-f]isoindol-9-yl)piperidine-2,6-dione], the DC50 is 0.402 µM and the Dmax was 61%.

As for `O=C1CCC(N2Cc3cc4c(cc3C2=O)OC[C@H]2CN(CC3CCCC3)CCN42)C(=O)N1` (stereo partly drawn) [Compound C30, 3-((R)-3-(cyclopentylmethyl)-8-oxo-1,2,3,4,4a,5,8,10-octahydro-9H-pyrazino[1′,2′:4,5][1,4]oxazino[2,3-f]isoindol-9-yl)piperidine-2,6-dione], the DC50 is more than 1 µM and the Dmax is 0%.

With `O=C1CC[C@H](N2Cc3cc4c(cc3C2=O)OC[C@@H]2CN(CC3CCC3)CCN42)C(=O)N1` [Compound C31, (S)-3-((S)-3-(cyclobutylmethyl)-8-oxo-1,2,3,4,4a,5,8,10-octahydro-9H-pyrazino[1′,2′:4,5][1,4]oxazino[2,3-f]isoindol-9-yl)piperidine-2,6-dione], the DC50 turned out to be 1.26 µM and the Dmax amounted to 58%.

Turning to `O=C1CC[C@H](N2Cc3cc4c(cc3C2=O)OC[C@@H]2CN(CCC3CCCCC3)CCN42)C(=O)N1` [Compound C32, (S)-3-((S)-3-(2-cyclohexylethyl)-8-oxo-1,2,3,4,4a,5,8,10-octahydro-9H-pyrazino[1′,2′:4,5][1,4]oxazino[2,3-f]isoindol-9-yl)piperidine-2,6-dione], the DC50 worked out at 0.324 µM and the Dmax amounted to 71%.

On to `C[C@H]1CC[C@H](CN2CCN3c4cc5c(cc4OC[C@@H]3C2)C(=O)N([C@H]2CCC(=O)NC2=O)C5)CC1` [Compound C33, (S)-3-((S)-3-(((1r,4S)-4-methylcyclohexyl)methyl)-8-oxo-1,2,3,4,4a,5,8,10-octahydro-9H-pyrazino[1′,2′:4,5][1,4]oxazino[2,3-f]isoindol-9-yl)piperidine-2,6-dione], for which the DC50 came to 0.515 µM and the Dmax is 67%.

(Values after patent publication US20260265271A1, “Cereblon Ligands and Uses Thereof” (REGENTS OF THE UNIVERSITY OF MICHIGAN, priority 2022, published 2026).)
